Eight compounds from DBAASP can be followed below.

Among the test systems are Escherichia coli 078; Streptococcus agalactiae; Escherichia coli UB1005.
Holding throughout (assay): ≥ marks a high value that may be exact or a test limit, other limits are often not marked, values filed in µg/mL are converted to µM
The test system of assay [1] is Streptococcus thermophilus YM-C.
Assay [2] concerns Escherichia coli ATCC 25922.
Assay [3] concerns Staphylococcus aureus ATCC 29213.
Assay [4] concerns Pseudomonas aeruginosa ATCC 27853.
Assay [5] concerns Streptococcus agalactiae CICC 10465.
Assay [6] concerns Salmonella enterica subsp. enterica serovar Typhimurium ATCC 14028.
Assay [7] has as its system Salmonella enterica subsp. enterica serovar Pullorum ATCC 7913.
Assay [8] concerns Salmonella enterica subsp. enterica serovar Typhimurium C77-31.
In assay [9] the test system is Staphylococcus epidermidis ATCC 12228.
The subject of assay [10] is Lacticaseibacillus rhamnosus 7469.
The test system of assay [11] is Staphylococcus aureus ATCC 25923.
For assay [12], the system named is Candida albicans ATCC 10231.
Assay [13] relates to Pseudomonas aeruginosa ATCC 9027.
Assay [14] has as its system Enterococcus faecalis PCM 2673.
Assay [15] relates to Klebsiella pneumoniae ATCC 13883.
In assay [16] the test system is Staphylococcus aureus USA 300 LAC.
Assay [17] deals with Staphylococcus epidermidis NBRC 12993.
Assay [18] has as its system Aspergillus oryzae NBRC 100959.
For assay [19], the system named is Candida viswanathii NBRC 10321.
Assay [20] relates to Escherichia coli NBRC 3972.
Assay [21] concerns Micrococcus luteus NBRC 3333.
The test system of assay [22] is Salmonella typhimurium CCARM 8009.
The test system of assay [23] is Pseudomonas aeruginosa KCTC 1637.
Assay [24] deals with Salmonella typhimurium KCTC 1926.
Assay [25] relates to Escherichia coli CCARM 1229.
The subject of assay [26] is Acinetobacter baumannii CCARM 12035.
For assay [27], the system named is Pseudomonas aeruginosa CCARM 2095.
For assay [28], the system named is Escherichia coli KCTC 1682.
The subject of assay [29] is Enterococcus faecalis KCTC 2011.
Assay [30] deals with Staphylococcus aureus KCTC 1621.
Assay [31] concerns Bacillus subtilis KCTC 3068.

≈ marks a conversion by molar mass, not a printed value.

For orientation: MIC means the smallest concentration in the dilution series that meets the test's criterion for growth inhibition. Higher therefore signals weaker potency. Take `CC[C@H](C)[C@H](NC(=O)[C@H](CC(C)C)NC(=O)[C@@H](NC(=O)[C@@H](N)CC(=O)O)[C@@H](C)CC)C(=O)N[C@H](C(=O)N[C@H](C(=O)NCC(=O)NCC(=O)N[C@@H](CCCCN)C(=O)N[C@@H](CCC(N)=O)C(=O)N[C@@H](CCCN=C(N)N)C(=O)N[C@@H](CCCCN)C(=O)N[C@@H](CCCCN)C(=O)N[C@@H](CCCN=C(N)N)C(=O)N[C@@H](CCCN=C(N)N)C(=O)N[C@@H](CCCN=C(N)N)C(N)=O)C(C)C)[C@@H](C)CC` [DILIIVGGKQRKKRRR]: the MIC in assay [1] was no less than 64 µM; in [2], 4 µM (≈ 7.74 µg/mL); in assay [3], 4 µM (≈ 7.74 µg/mL); with Escherichia coli 078, 4 µM (≈ 7.74 µg/mL); in assay [4] it was 4 µM (≈ 7.74 µg/mL); in the assay on Streptococcus agalactiae it was 5.66 µM (≈ 10.9 µg/mL). The minimal inhibitory concentration (MIC) in assay [5] came to 2 µM (≈ 3.87 µg/mL); in assay [6], 4 µM (≈ 7.74 µg/mL); in assay [7], 8 µM (≈ 15.5 µg/mL); in [8], 4 µM (≈ 7.74 µg/mL); in assay [9], 4 µM (≈ 7.74 µg/mL); against Escherichia coli UB1005 it was 8 µM (≈ 15.5 µg/mL). Moreover, the MIC in assay [10] was no less than 32 µM; in assay [11] it was 8 µM (≈ 15.5 µg/mL).
With `CC[C@H](C)[C@H](NC(=O)[C@H](CC(C)C)NC(=O)[C@@H](NC(=O)[C@@H](N)CC(=O)O)[C@@H](C)CC)C(=O)N[C@H](C(=O)N[C@H](C(=O)NCC(=O)NCC(=O)N[C@@H](CCCN=C(N)N)C(=O)N[C@@H](CCCN=C(N)N)C(=O)N[C@@H](CCCN=C(N)N)C(=O)N[C@@H](CCCN=C(N)N)C(=O)N[C@@H](CCCN=C(N)N)C(=O)N[C@@H](CCCN=C(N)N)C(N)=O)C(C)C)[C@@H](C)CC` [DILIIVGGRRRRRR], the MIC in assay [1] was no less than 64 µM; in assay [2], 16 µM (≈ 27.8 µg/mL); in assay [3] it was 2 µM (≈ 3.47 µg/mL); against Escherichia coli 078, no less than 32 µM; in [4] it was greater than 64 µM; against Streptococcus agalactiae, 5.66 µM (≈ 9.82 µg/mL). The MIC in [5] was 2 µM (≈ 3.47 µg/mL); in assay [6], greater than 64 µM; in assay [7], 8 µM (≈ 13.9 µg/mL); in [8] it was no less than 64 µM; in assay [9] it was 2 µM (≈ 3.47 µg/mL); against Escherichia coli UB1005, 16 µM (≈ 27.8 µg/mL). In addition, the MIC in [10] is no less than 64 µM; in assay [11] it was greater than 64 µM.
Turning to `CC[C@H](C)[C@H](NC(=O)[C@H](CCCCN)NC(=O)[C@H](CCCCN)NC(=O)[C@@H](NC(=O)[C@@H](NC(=O)[C@H](CC(=O)O)NC(=O)[C@H](Cc1ccccc1)NC(=O)[C@H](CC(C)C)NC(=O)CN)[C@@H](C)CC)[C@@H](C)CC)C(=O)N[C@@H](C)C(=O)N[C@@H](C)C(=O)N[C@@H](CO)C(=O)N[C@@H](Cc1ccccc1)C(N)=O` [GLFDIIKKIAASF], the MIC in assay [2] was 11.2 µM (≈ 16 µg/mL); in assay [12], 22.5 µM (≈ 32 µg/mL); in assay [13], 45 µM (≈ 64 µg/mL); in [11], 22.5 µM (≈ 32 µg/mL); in [14] it was 22.5 µM (≈ 32 µg/mL).
Consider `CC[C@H](C)[C@H](NC(=O)[C@H](CCCCN)NC(=O)[C@H](CCCN=C(N)N)NC(=O)[C@@H](N)CC(C)C)C(=O)N[C@@H](Cc1c[nH]c2ccccc12)C(=O)N[C@@H](Cc1c[nH]c2ccccc12)C(=O)N[C@@H](Cc1c[nH]c2ccccc12)C(=O)N[C@@H](Cc1c[nH]c2ccccc12)C(N)=O` [LRKIWWWW], for which the MIC in [2] was determined as 12.5 µM (≈ 15.9 µg/mL); in [15], 8.8 µM (≈ 11.2 µg/mL); in [16], 4.38 µM (≈ 5.58 µg/mL).
Take `CC[C@H](C)[C@H](NC(=O)[C@H](CCCCN)NC(=O)[C@@H](N)CCCN=C(N)N)C(=O)N[C@@H](CCCCN)C(=O)N[C@@H](CCCN=C(N)N)C(=O)N[C@@H](Cc1ccc(O)cc1)C(=O)N[C@@H](CC(C)C)C(=O)N[C@@H](CCCN=C(N)N)C(=O)N[C@@H](CCCN=C(N)N)C(=O)N[C@@H](CCSC)C(=O)N[C@H](C(=O)N[C@H](C(=O)N[C@H](C(=O)N[C@@H](Cc1c[nH]c2ccccc12)C(=O)O)[C@@H](C)CC)[C@@H](C)CC)[C@@H](C)CC` [RKIKRYLRRMIIIW]: the MIC in assay [17] is 12.9 µM (≈ 25 µg/mL); in [18] it was 12.9 µM (≈ 25 µg/mL); in assay [19], 25.7 µM (≈ 50 µg/mL); in [20], no less than 411 µM; in assay [21] it was 25.7 µM (≈ 50 µg/mL).
Consider `CC[C@H](C)[C@H](NC(=O)CNC(=O)[C@H](CC(=O)O)NC(=O)[C@H](CCCN=C(N)N)NC(=O)[C@@H](NC(=O)[C@H](CC(N)=O)NC(=O)[C@H](CCCN=C(N)N)NC(=O)CNC(=O)[C@@H](NC(=O)[C@H](CCCCN)NC(=O)[C@H](CCC(=O)O)NC(=O)[C@@H](NC(=O)[C@H](CCCCN)NC(=O)[C@H](CCCCN)NC(=O)[C@H](C)NC(=O)[C@@H](NC(=O)[C@H](CCCCN)NC(=O)[C@H](Cc1c[nH]c2ccccc12)NC(=O)[C@@H](N)CCCN=C(N)N)[C@@H](C)CC)[C@@H](C)CC)C(C)C)C(C)C)C(=O)N[C@H](C(=O)N[C@@H](CCCCN)C(=O)N[C@@H](C)C(N)=O)[C@@H](C)CC` [RWKIAKKIEKVGRNVRDGIIKA], for which the MIC came to 4 µM (≈ 10.3 µg/mL) in assay [22]; 2 µM (≈ 5.16 µg/mL) in assay [23]; 2 µM (≈ 5.16 µg/mL) in assay [24]; 2 µM (≈ 5.16 µg/mL) in assay [25]; 8 µM (≈ 20.6 µg/mL) in assay [26]; 8 µM (≈ 20.6 µg/mL) in assay [27]. For the same compound, the MIC in [28] was 1 µM (≈ 2.58 µg/mL); in [29] it was no less than 128 µM; in assay [30] it was 16 µM (≈ 41.3 µg/mL); in assay [31], 16 µM (≈ 41.3 µg/mL).
Take `CC[C@H](C)[C@H](NC(=O)CNC(=O)[C@H](CC(=O)O)NC(=O)[C@H](CCCN=C(N)N)NC(=O)[C@@H](NC(=O)[C@H](CC(N)=O)NC(=O)[C@H](CCCN=C(N)N)NC(=O)CNC(=O)[C@@H](NC(=O)[C@H](CCCCN)NC(=O)[C@H](CCC(=O)O)NC(=O)[C@@H](NC(=O)[C@H](CCCCN)NC(=O)[C@H](CCCCN)NC(=O)[C@H](Cc1ccccc1)NC(=O)[C@@H](NC(=O)[C@H](CCCCN)NC(=O)[C@H](Cc1c[nH]c2ccccc12)NC(=O)[C@@H](N)CCCN=C(N)N)[C@@H](C)CC)[C@@H](C)CC)C(C)C)C(C)C)C(=O)N[C@H](C(=O)N[C@@H](CCCCN)C(=O)N[C@@H](C)C(N)=O)[C@@H](C)CC` [RWKIFKKIEKVGRNVRDGIIKA]: the MIC in assay [22] amounted to 2 µM (≈ 5.31 µg/mL); in [23], 2 µM (≈ 5.31 µg/mL); in assay [24], 2 µM (≈ 5.31 µg/mL); in [25], 4 µM (≈ 10.6 µg/mL); in [26], 2 µM (≈ 5.31 µg/mL); in assay [27] it was 2 µM (≈ 5.31 µg/mL). For the same compound, the MIC was 1 µM (≈ 2.65 µg/mL) in assay [28], no less than 64 µM in assay [29], 8 µM (≈ 21.2 µg/mL) in assay [30] and 8 µM (≈ 21.2 µg/mL) in assay [31].
In the case of `CC[C@H](C)[C@H](NC(=O)[C@H](CCCCN)NC(=O)[C@H](CCCN=C(N)N)NC(=O)[C@H](CC(C)C)NC(=O)[C@@H](N)Cc1c[nH]c2ccccc12)C(=O)N[C@@H](Cc1c[nH]c2ccccc12)C(=O)N[C@@H](Cc1c[nH]c2ccccc12)C(=O)N[C@@H](Cc1c[nH]c2ccccc12)C(N)=O` [WLRKIWWW], the minimum inhibitory concentration (MIC) came out at 17.7 µM (≈ 22.5 µg/mL) in assay [2], 25 µM (≈ 31.8 µg/mL) in assay [15] and 4.38 µM (≈ 5.58 µg/mL) in [16].
